# Test results as given in patent US10759994B2, “Luminogenic transition metal-based pyridyl complex and its use” (City University of Hong Kong, priority 2016, dated 2020).
# How the values were obtained:
# HeLa cells = assay type: cell-based; settings: BCN-C10 pretreatment (200 μM, 1 h), complex 40 μM
# Source text: The results particularly highlight the potential of the luminogenic transition metal-based polypyridyl complexes of the present invention for bioorthogonal labeling. […] Importantly, although the cellular uptake of complex 2b was substantially higher, it was much less cytotoxic than complex 4b toward the pretreated cells. […] The results also highlight the potential therapeutic use of intracellular bioorthogonal coupling reactions in activating the cytotoxicity of metallo drugs.
# For determining the cytotoxicity of complexes 1 b 5b, HeLa cells were seeded in a 96-well flat-bottomed microplate (about 10,000 cells well^−1) in growth medium (100 μL) and incubated at 37° C. under a 5% CO2 atmosphere for 24 h. The cells were then incubated in either blank medium or growth medium/DMSO (99:1, v/v) (100 μL) containing BCN-C10 (200 μM) in the dark at 37° C. under a 5% CO2 atmosphere for 1 h. The medium was then removed, the cell layer was washed with PBS, and further incubated in growth medium/DMSO (99:1, v/v) (100 μL) containing the ruthenium(II) complexes (40 μM) in the dark at 37° C. under a 5% CO2 atmosphere for 6, 12, or 24 h. Wells containing untreated cells were used as blank control. The microplate was incubated at 37° C. under a 5% CO2 atmosphere for another 4 h. The growth medium was then removed, and DMSO (200 μL) was added to each well. The microplate was further incubated for 15 min. The absorbance of the solutions at 570 nm was measured with a SPECTRAmax 340 microplate reader.
# [1] = aerated aqueous solution, λex=455 nm; cited from earlier work
# [2] = SPANC reaction kinetics with BCN—OH by UV/Vis absorption spectroscopy; assay type: physicochemical; settings: reaction with BCN—OH in MeOH at 298 K
# Procedure: The reactivity of the iridium(III) and ruthenium(II) pyridyl complexes toward a strained alkyne derivative BCN—OH in MeOH at 298 K was studied. The second-order rate constants (k2) of the strain-promoted alkyne-nitrone cycloaddition (SPANC) reaction of complexes 1a-5b are shown in Tables 3 and 4, respectively. The k2 values of the iridium(III) complexes 1a, 2a and 3a and the ruthenium(II) complexes 1b, 2b, 3b, 4b, and 5b were determined to be 0.116-0.238 and 0.078-3.06 M^−1 s^−1, respectively, which are about 1.95-76.5 times that of the free ligand bpy-nitrone-Me (k2=0.040 M^−1 s^−1). This is attributed to the electron-withdrawing effects of the positively-charged metal centers. […] The accelerated reaction kinetics is assumed to originate from the presence of the more electron-withdrawing phenyl ring at the N-position of the nitrone moiety. Thus, the accelerated reaction kinetics render complexes 1a-5b highly advantageous bioorthogonal probes for biomolecules modified with a strained alkyne moiety.
# More specifically, the SPANC reaction kinetics of complexes 1a 5b was studied by UV/Ms absorption spectroscopy. For the ligand bpy-nitrone-Me and the iridium(III) complexes 1a-3a, the k2 values were measured under pseudo first order conditions with a 25- to 100-fold excess of BCN—OH in MeOH at 298 K. The reaction process was followed by monitoring the exponential decay of the absorbance at 306-342 nm upon addition of BCN—OH. The final concentrations of the nitrone compounds were 10 μM and those of BCN—OH ranged from 0.25 to 1.0 mM. For the ruthenium(II) complexes 1b-5b, the k2 values were determined under pseudo first order conditions with a 50- to 200-fold excess of BCN—OH in MeOH at 298 K. The reaction process was monitored by following the exponential decay of the absorbance at 329 nm. The final concentrations of the complexes were 10 μM and those of BCN—OH ranged from 0.5 to 2.0 mM. The data were fitted to a single-exponential equation to give the observed rate constants (kobs), which were plotted against the concentrations of BCN—OH to obtain the k2 from the slope of the plots.
compound,measurement,setting,value
"Cc1ccnc(-c2cc(/C=[N+](/C)[O-])ccn2)c1.F[P-](F)(F)(F)(F)F.F[P-](F)(F)(F)(F)F.[Ru+2].c1ccc(-c2ccccn2)nc1.c1ccc(-c2ccccn2)nc1 [Complex 1b, [Ru(bpy)2(bpy-nitrone-Me)](PF6)2]",Cell viability with BCN-C10 pretreatment,HeLa cells,maintained good biocompatibility
[Cl][Ru][Cl].c1ccc(-c2ccccn2)nc1.c1ccc(-c2ccccn2)nc1.c1ccc(-c2ccccn2)nc1 [[Ru(bpy)3]Cl2],ϕem of standard solution,[1],0.028
"Cc1ccnc(-c2cc(C=[N+](C)[O-])ccn2)c1 [bpy-nitrone-Me, 4-((Methyl(oxido)imino)methyl)-4′-methyl-2,2′-bipyridine]",Second-order rate constants (k2),[2],0.040 M⁻¹ s⁻¹
